Experimental data published in PubChem BioAssay (NCI).
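Results reflect a 48-hour exposure of cells in 96-well plates to compound at five concentrations. The concentration for 50% growth inhibition is given as GI50. TGI: total growth inhibition.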

What was measured:
Test in all cases: DTP human tumour cell line panel, 48 h
[1] = system: NCI-H23 lung
[2] = system: HS 578T breast
[3] = system: UACC-62 melanoma
[4] = system: MCF7 breast
[5] = system: SF-295 CNS
[6] = system: MDA-MB-231 breast
[7] = system: UO-31 renal
[8] = system: SK-MEL-28 melanoma
[9] = system: RPMI-8226 leukemia
[10] = system: OVCAR-8 ovarian
[11] = system: MDA-MB-435
[12] = system: M14 melanoma
[13] = system: HCC-2998 colon
[14] = system: SK-MEL-5 melanoma
[15] = system: CAKI-1 renal
[16] = system: TK-10 renal
[17] = system: DU-145 prostate
[18] = system: NCI/ADR-RES ovarian
[19] = system: SF-268 CNS
[20] = system: PC-3 prostate
[21] = system: SR leukemia
[22] = system: MOLT-4 leukemia
[23] = system: OVCAR-3 ovarian
[24] = system: ACHN renal
[25] = system: SK-MEL-2 melanoma
[26] = system: NCI-H460 lung
[27] = system: CCRF-CEM leukemia
[28] = system: OVCAR-4 ovarian
[29] = system: BT-549 breast

## Cn1cc(C2=C(c3c4n(c5ccccc35)CCC(CN)CC4)C(=O)NC2=O)c2ccccc21 (configuration not stated)
[1]
  TGI: 10.9 µM
[2]
  GI50: 2560 nM
  TGI: 8.5 µM
[3]
  GI50: 3.65 µM
  TGI: 7.28 µM
[4]
  GI50: 3.48 µM
  TGI: 7.41 µM
[5]
  GI50: 4.01 µM
  TGI: 8.02 µM
[6]
  GI50: 3.25 µM
  TGI: 7.13 µM
[7]
  GI50: 4.07 µM
  TGI: 7.91 µM
[8]
  GI50: 4.17 µM
  TGI: 8.06 µM
[9]
  GI50: 4.41 µM
  TGI: 10.8 µM
[10]
  GI50: 4.82 µM
  TGI: 9.8 µM
[11]
  GI50: 3.35 µM
  TGI: 6.76 µM
[12]
  GI50: 4.29 µM
  TGI: 8.26 µM
[13]
  GI50: 4.43 µM
  TGI: 8.46 µM
[14]
  GI50: 3.99 µM
  TGI: 7.59 µM
[15]
  GI50: 4.75 µM
  TGI: 10.7 µM
[16]
  GI50: 3.31 µM
  TGI: 6.95 µM
[17]
  GI50: 4.55 µM
  TGI: 8.21 µM
[18]
  GI50: > 25 µM
  TGI: > 25 µM
[19]
  GI50: 4.02 µM
  TGI: 7.7 µM
[20]
  GI50: 3.39 µM
  TGI: 7.95 µM
[21]
  GI50: 5.14 µM
  TGI: 16.2 µM
[22]
  GI50: 5.27 µM
  TGI: 13.3 µM
[23]
  GI50: 4.31 µM
  TGI: 8.75 µM
[24]
  GI50: 4.43 µM
  TGI: 8.67 µM
[25]
  GI50: 4.02 µM
  TGI: 8.25 µM
[26]
  GI50: 4.21 µM
  TGI: 8.19 µM
[27]
  GI50: 5.19 µM
  TGI: 15.6 µM
[28]
  GI50: 1960 nM
  TGI: 7.51 µM
[29]
  GI50: 4.7 µM
  TGI: 8.62 µM
